This is an account of results in paper PMC8667882 (Journal of Enzyme Inhibition and Medicinal Chemistry, 2021).

The subject of this assay is CN (mouse brain extract). Conditions: peptide 25 nM, RII substrate.

With GPHPVIVIT [pep1s], the “effect on CN activity at 25 nM” value was “minimal effects on CN activity”.
